Experimental data reported in patent US7271158B2, “Treatment of rumen acidosis with α-amylase inhibitors” (Pfizer Inc., priority 2000, dated 2007).

What was measured:
[1] = biological target: rumen fluid supernatant amylases; experiment: Rumen bacterial amylase assay, protocol 2 (amylose azure); settings: read-out: Average IC50, rumen fluid amylase screen
[2] = system: bacterial glucosidase activity from bovine rumen fluid cell suspension; experiment: Rumen fluid glucosidase assay; assay type: biochemical, bovine rumen bacteria; settings: rumen fluid glucosidase screen, maltose substrate
Procedure: Rumen Fluid Glucosidase Assay Protocol This assay is used to determine IC50 values for inhibitors of bacterial glucosidase activity from bovine rumen fluid cell suspension (RFCS) using a colorimetric assay. The assay measures conversion of maltose into glucose. Rumen fluid cells are incubated with maltose in the presence of inhibitors, and the amount of glucose produced is assessed using a red colourimetric endpoint. The higher the level of inhibition the lower the glucose produced and the less red colour produced. The plates are read at 450 nm. Main reaction: • Maltose+glucosidase→glucose Glucose assay • Glucose+ATP→[…] and ADP (Hexokinase and Mg^2+) • […] and NADP→6-phosphogluconate (6-PG) and NADPH • NADPH+phenazine methosulfate ([…] (iodonitrotetrazolium chloride)→[…] is deep red coloured. […] The rumen fluid was collected into pre-warmed vacuum flasks. It was then filtered through a double layer of absorbent gauze (Absorbent gauze BP, GAUZ 4 from Robert Bailey plc, Stockport) to remove hay and feed particles. The liquid was centrifuged at a relative centrifugal force of 650 for 15 minutes to remove food particles and protozoa. The supernatant was decanted into fresh tubes and centrifuged at a relative centrifugal force of 23,300 for 60 minutes. The supernatant and the loose top layer of the pellet were discarded. The pellet was resuspended in PBS at 1:8 of original volume i.e. 50 ml of PBS for the pellet from 400 ml of rumen fluid, and frozen at -20° C. When required for use the cells were thawed by standing the tube in cold water, and then diluted to […] of cells/well (45 μl/ml). Test compounds or controls were dispensed into the 96-well assay plate at 2 μl/well, followed by 50 μl per well of 10 mM maltose and 50 μl/well of rumen fluid cell suspension. The plate was incubated at 37° C. for 1 hour. Sigma glucose detection kit […] was reconstituted by addition of 17 ml of Millipore water and 4 ml of colour reagent to each vial. 100 μl of this solution was added per well and the plate returned to the 37° C. incubator for 45 minutes. The plate was then read at 450 nm. Active compounds cause a reduction in the optical density readings when compared to the no-inhibitor control wells.

[3] = biological target: rumen fluid supernatant amylases; experiment: Rumen bacterial amylase assay, protocol 1 (Sigma amylase kit 577); assay type: biochemical, rumen bacteria, Hereford×Friesian calves; settings: for IC50: rumen fluid amylase screen using Sigma kit 577
From the text: Rumen Bacterial Amylase Assay—Protocol 1
The enzymatic reactions involved in the assay are as follows:
5 ET-G7PNP→(α-amylase)→2 ET-G5+2 G2PNP+2 ET-G4+2 G3PNP+ET-G3+G4-PNP2 G2PNP+2 G3 PNP→(α-glucosidase)→4 PNP +10 glucose
α-Amylase hydrolyses 4,6-ethylidene-G7-PNP (ET-G7 PNP) to G2, G3 and G4 PNP fragments. α-Glucosidase (α-1,4-glucan glucohydrolase EC 3.2.1.3) hydrolyses G2PNP and G3PNP to yield p-nitrophenol and glucose. Five moles of substrate (ET-G7PNP) is hydrolysed to yield 4 moles of p-nitrophenol p-Nitrophenol absorbs light as 405 nm, and following a two minute lag period the rate of increase in absorbance at 405 nm is directly proportional to α-amylase activity in the well.
Rumen fluid was collected from 4-month-old Hereford×Friesian calves (125–135 kg, supplied by Cwmnant Calves Ltd. Cwmnant. Tregaron. Ceredigion) fed on diet GH 313. The rumen fluid was collected from slaughtered calves into pre-warmed vacuum flasks, as soon as possible after euthanasia. It was then filtered through a double layer of absorbent gauze (Absorbent gauze BP, GAUZ 4 from Robert Bailey plc, Stockport) to remove hay and feed particles. The liquid was centrifuged at a relative centrifugal force of 23,300 for 60 minutes, and the supernatant decanted, avoiding contamination from the loose top layer of the pellet by careful pouring. The supernatant was then aliquoted into 50 ml plastic tubes and frozen at […]. When required for use in an assay the rumen fluid supernatant was thawed by standing the tubes in cold water. Test compounds or controls were dispensed into the 96-well assay plate at 4 μl/well. 100 μl per well of Sigma amylase reagent 577 (made up to half the volume described in the instructions (i.e. 10 ml for a 577-20 vial)) was then added to each well, followed by 100 μl per well of rumen fluid supernatant. A T=0 reading at 405 nm was taken at this stage using an Anthos plate reader. The plate was then incubated at room temperature or 37° C. until an optical density window of approximately 1.000U was seen (typically one hour at 37° C. or three hours at room temperature). A second reading was taken at 405 nm, and the first reading subtracted from it. Active compounds cause a reduction in the optical density readings when compared to the control without the agent being tested.

[4] = system: rumen fluid fermentation (RUSITEC chronic acidosis model); experiment: RUSITEC rumen simulation, chronic acidosis model: Example 8 and acarbose; assay type: cell-based, cow; settings: for proportional increase in butyrate production: treatment period vs control period (no treatment: 1%); for change in total VFA production: vs preceding control period (no treatment: −11%)
Procedure: RUSITEC Result using Example 8 and Acarbose
Daily maintenance procedures as previously described for Acarbose.
Rumen fluid donor cow—Fed GH313Pellets plus barley straw.
Daily Feed—30 g GH313 pellets plus 2.5 g chopped barley straw.
Acarbose: 1 tablet added to each bag to give 100 mg/vessel/d
Example 8: Eight×57 mg pre-weighed samples stored in fridge in […]. On the day before the feed bags were to be placed in RUSITEC, a 57 mg sample was dissolved in 2.28 ml buffer (25 mg/ml). 0.21 ml of this solution was added to 1.9 ml buffer to give a 2.5 mg/ml solution. 1 ml of each solution was added to a prepared feed bag to give 25 and 2.5 mg/vessel/d. and dried overnight at room temperature.

IC50 [1] [µM] | IC50 [2] [µM] | IC50 [3] [µM] | effect in the amylase screen [3] | SMILES | increase in mean daily pH ([4]; 0.02 mM) [units] | proportional increase in butyrate production ([4]; 2.5 mg per vessel per day) [%] | change in total VFA production ([4]; 2.5 mg per vessel per day) [%] | proportional increase in butyrate production ([4]; 25 mg per vessel per day) [%] | change in total VFA production ([4]; 25 mg per vessel per day) [%]
9.45 | 13.1 | 0.44 | – | CC1OC(OC2C(CO)OC(OC3C(CO)=CC(NC4C(C)OC(OC5C(CO)OC(OC6C(CO)OC(OC7C(CO)OC(OC8C(CO)OC(O)C(O)C8O)C(O)C7O)C(O)C6O)C(O)C5O)C(O)C4O)C(O)C3O)C(O)C2O)C(O)C(O)C1NC1C=C(CO)C(O)C(O)C1O (centres unmarked) [Example 8] | 0.3 | 18 | −1 | 20 | −8
– | 148 | 0.09 | – | C[C@H]1O[C@H](O[C@H]2[C@H](O)[C@@H](O)[C@@H](O[C@H]3[C@H](O)[C@@H](O)[C@@H](O[C@H]4[C@H](O)[C@@H](O)[C@@H](O[C@H]5O[C@H](CO)[C@@H](O)[C@H](O)[C@H]5O)O[C@@H]4CO)O[C@@H]3CO)O[C@@H]2CO)[C@H](O)[C@@H](O)[C@@H]1N[C@H]1C=C(CO)[C@@H](O[C@H]2O[C@H](CO)[C@@H](O[C@H]3O[C@H](C)[C@@H](NC4C=C(CO)[C@@H](O[C@H]5O[C@H](CO)[C@@H](O[C@H]6O[C@H](C)[C@@H](NC7C=C(CO)[C@@H](O)[C@H](O)[C@H]7O)[C@H](O)[C@H]6O)[C@H](O)[C@H]5O)[C@H](O)[C@H]4O)[C@H](O)[C@H]3O)[C@H](O)[C@H]2O)[C@H](O)[C@H]1O (some centres unmarked) [Trestatin C] | – | – | – | – | –
2.07 | 65.5 | 0.57 | – | CC1OC(OC2C(CO)OC(OC3C(CO)=CC(NC4C(C)OC(OC5C(CO)OC(OC6C(CO)OC(OC7C(CO)OC(O)C(O)C7O)C(O)C6O)C(O)C5O)C(O)C4O)C(O)C3O)C(O)C2O)C(O)C(O)C1NC1C=C(CO)C(O)C(O)C1O (centres unmarked) [Example V-1532] | – | – | – | – | –
– | 4.1 | 2.89 | – | C[C@H]1O[C@H](O[C@@H]2[C@H](O)[C@@H](O)[C@@H](O[C@@H]3[C@H](O)[C@@H](O)[C@@H](O[C@@H]4[C@H](O)[C@H](O)[C@@H](O[C@H]5O[C@H](CO)[C@H](O)[C@H](O)[C@H]5O)O[C@@H]4CO)O[C@@H]3CO)O[C@H]2CO)[C@@H](O)[C@@H](O)[C@@H]1N[C@@H]1C=C(CO)[C@@H](O)[C@@H](O)[C@@H]1O (stereo in doubt) [Trestatin B] | – | – | – | – | –
0.79 | 33.6 | 0.17 | – | C[C@H]1O[C@H](O[C@@H]2[C@H](O)[C@H](O)[C@@H](O[C@@H]3[C@H](O)[C@@H](O)[C@@H](O[C@@H]4[C@H](O)[C@H](O)[C@@H](O[C@H]5O[C@@H](CO)[C@H](O)[C@H](O)[C@H]5O)O[C@@H]4CO)O[C@@H]3CO)O[C@H]2CO)[C@H](O)[C@@H](O)[C@@H]1N[C@H]1C=C(CO)[C@@H](O[C@H]2O[C@H](CO)[C@H](O[C@H]3O[C@H](C)[C@@H](N[C@H]4C=C(CO)[C@@H](O)[C@H](O)[C@H]4O)[C@H](O)[C@H]3O)[C@H](O)[C@H]2O)[C@H](O)[C@H]1O (stereo in doubt) [Trestatin A] | – | – | – | – | –
– | 6.38 | – | inhibiting effect | CC1OC(OC2C(CO)OC(OC3C(CO)OC(OC4C(CO)OC(OC5C(CO)OC(O)C(O)C5O)C(O)C4O)C(O)C3O)C(O)C2O)C(O)C(O)C1NC1C=C(CO)C(O)C(O)C1O (centres unmarked) [Example 7] | – | – | – | – | –
